How the values were obtained:
CCRF-CEM = assay: Cytotoxicity against human CCRF-CEM cells assessed as reduction in cell viability measured after 72 hrs by MTS assay; type: functional, cell-based
CEM-DNR = assay: Cytotoxicity against daunorubicin resistant human CEM-DNR cells assessed as reduction in cell viability measured after 72 hrs by MTS assay; type: functional, cell-based
[1] = Cytotoxicity against paclitaxel resistant human K562-Tax cells assessed as reduction in cell viability measured after 72 hrs by MTS assay; type: functional, cell-based
BJ = assay: Cytotoxicity against human BJ cells assessed as reduction in cell viability measured after 72 hrs by MTS assay; type: cell-based
K562 = assay: Cytotoxicity against human K562 cells assessed as reduction in cell viability measured after 72 hrs by MTS assay; type: functional, cell-based; details: K562, 72 h
MRC5 = assay: Cytotoxicity against human MRC5 cells assessed as reduction in cell viability measured after 72 hrs by MTS assay; type: cell-based; details: MRC5, 72 h
A549 = assay: Cytotoxicity against human A549 cells assessed as reduction in cell viability measured after 72 hrs by MTS assay; type: functional, cell-based; details: A549, 72 h
[2] = Cytotoxicity against human HCT116 p53-null cells assessed as reduction in cell viability measured after 72 hrs by MTS assay; type: functional, cell-based
U2OS = assay: Cytotoxicity against human U2OS cells assessed as reduction in cell viability measured after 72 hrs by MTS assay; type: functional, cell-based
HCT-116 = assay: Cytotoxicity against human HCT-116 cells assessed as reduction in cell viability measured after 72 hrs by MTS assay; type: functional, cell-based; details: HCT-116, 72 h

Compound	IC50 (CCRF-CEM) [µM]	IC50 (CEM-DNR) [µM]	IC50 [1] [µM]	IC50 (BJ) [µM]	IC50 (K562) [µM]	IC50 (MRC5) [µM]	IC50 (A549) [µM]	IC50 [2] [µM]	IC50 (U2OS) [µM]	IC50 (HCT-116) [µM]
C=C(/C=C/c1cccc(C)c1)[C@@H]1CC[C@]2(C(=O)O)CC[C@]3(C)[C@H](CC[C@@H]4[C@@]5(C)CC[C@H](O)C(C)(C)[C@@H]5CC[C@]43C)[C@@H]12	9.5	21.4	23.6	> 50	24.9	42.2	36.5	22.3	18.2	24.7
C=C(/C=C/c1ccc(C(C)(C)C)cc1)[C@@H]1CC[C@]2(C(=O)O)CC[C@]3(C)[C@H](CC[C@@H]4[C@@]5(C)CC[C@H](O)C(C)(C)[C@@H]5CC[C@]43C)[C@@H]12	45.6	> 50	> 50	> 50	> 50	> 50	> 50	> 50	45.1	> 50
C=C(/C=C/c1cccc(OC)c1)[C@@H]1CC[C@]2(C(=O)O)CC[C@]3(C)[C@H](CC[C@@H]4[C@@]5(C)CC[C@H](O)C(C)(C)[C@@H]5CC[C@]43C)[C@@H]12	4.6	30.6	25.6	> 50	41.4	44.1	40.1	39.6	25.2	34.6
C=C(/C=C/c1cccc(Br)c1)[C@@H]1CC[C@]2(C(=O)O)CC[C@]3(C)[C@H](CC[C@@H]4[C@@]5(C)CC[C@H](O)C(C)(C)[C@@H]5CC[C@]43C)[C@@H]12	8.8	35.9	32.8	> 50	23.6	> 50	33.1	26.8	27.6	25.3
C=C(/C=C/c1cccc(I)c1)[C@@H]1CC[C@]2(C(=O)O)CC[C@]3(C)[C@H](CC[C@@H]4[C@@]5(C)CC[C@H](O)C(C)(C)[C@@H]5CC[C@]43C)[C@@H]12	11.6	> 50	48.4	> 50	25.2	> 50	38.7	29.5	28.4	27.3
C=C(/C=C/c1ccc(F)c(Cl)c1)[C@@H]1CC[C@]2(C(=O)O)CC[C@]3(C)[C@H](CC[C@@H]4[C@@]5(C)CC[C@H](O)C(C)(C)[C@@H]5CC[C@]43C)[C@@H]12	5.5	27.8	25.2	> 50	40.6	32.4	45.5	20.8	26.5	21.8
C=C(/C=C/c1cccc(C(=O)O)c1)[C@@H]1CC[C@]2(C(=O)O)CC[C@]3(C)[C@H](CC[C@@H]4[C@@]5(C)CC[C@H](O)C(C)(C)[C@@H]5CC[C@]43C)[C@@H]12	20.1	33.9	36.7	> 50	> 50	> 50	> 50	43.1	> 50	43.4
C=C(/C=C/c1ccc(C#N)cc1)[C@@H]1CC[C@]2(C(=O)O)CC[C@]3(C)[C@H](CC[C@@H]4[C@@]5(C)CC[C@H](O)C(C)(C)[C@@H]5CC[C@]43C)[C@@H]12	23.8	27	27.2	> 50	> 50	49.7	> 50	43.3	44.1	39.1
C=C(/C=C/c1ccccn1)[C@@H]1CC[C@]2(C(=O)O)CC[C@]3(C)[C@H](CC[C@@H]4[C@@]5(C)CC[C@H](O)C(C)(C)[C@@H]5CC[C@]43C)[C@@H]12	19.7	27.7	29.2	> 50	> 50	> 50	> 50	> 50	> 50	> 50
C=C(/C=C/c1ccc(C)cc1)[C@@H]1CC[C@]2(C(=O)O)CC[C@]3(C)[C@H](CC[C@@H]4[C@@]5(C)CC[C@H](O)C(C)(C)[C@@H]5CC[C@]43C)[C@@H]12	5.9	26.1	26.3	> 50	> 50	> 50	> 50	18.2	> 50	21.4
C=C(/C=C/c1ccc(I)cc1)[C@@H]1CC[C@]2(C(=O)O)CC[C@]3(C)[C@H](CC[C@@H]4[C@@]5(C)CC[C@H](O)C(C)(C)[C@@H]5CC[C@]43C)[C@@H]12	16	> 50	> 50	> 50	> 50	41.2	> 50	33.3	32.2	30.7
C=C(C=O)[C@@H]1CC[C@]2(C(=O)O)CC[C@]3(C)[C@H](CC[C@@H]4[C@@]5(C)CC[C@H](O)C(C)(C)[C@@H]5CC[C@]43C)[C@@H]12	0.8	3.8	1.3	6.7	3.4	2.6	> 50	1.9	1.3	1.9
C=C(/C=C/c1ccccc1F)[C@@H]1CC[C@]2(C(=O)O)CC[C@]3(C)[C@H](CC[C@@H]4[C@@]5(C)CC[C@H](O)C(C)(C)[C@@H]5CC[C@]43C)[C@@H]12	15.4	23.2	25.1	42.1	21.8	31.7	29.7	22.6	27.7	24.5
C=C(/C=C/c1ccncc1)[C@@H]1CC[C@]2(C(=O)O)CC[C@]3(C)[C@H](CC[C@@H]4[C@@]5(C)CC[C@H](O)C(C)(C)[C@@H]5CC[C@]43C)[C@@H]12	5.9	20.5	20.6	> 50	43.4	> 50	46	30.6	29.7	35
C=C(/C=C/c1ccc(C(F)(F)F)cc1)[C@@H]1CC[C@]2(C(=O)O)CC[C@]3(C)[C@H](CC[C@@H]4[C@@]5(C)CC[C@H](O)C(C)(C)[C@@H]5CC[C@]43C)[C@@H]12	21.5	40.9	45.6	49.5	40.5	42.4	41.4	31.9	28.2	40.9
C=C(/C=C/c1ccccc1Br)[C@@H]1CC[C@]2(C(=O)O)CC[C@]3(C)[C@H](CC[C@@H]4[C@@]5(C)CC[C@H](O)C(C)(C)[C@@H]5CC[C@]43C)[C@@H]12	16.8	49.1	47.9	46.7	21.6	35.3	28.6	24.5	27.8	27.2
C=C(/C=C/c1ccc2ccccc2c1)[C@@H]1CC[C@]2(C(=O)O)CC[C@]3(C)[C@H](CC[C@@H]4[C@@]5(C)CC[C@H](O)C(C)(C)[C@@H]5CC[C@]43C)[C@@H]12	11.8	47	45.8	> 50	> 50	43.1	32.9	26.3	27.2	30.2
C=C(/C=C/c1cccnc1)[C@@H]1CC[C@]2(C(=O)O)CC[C@]3(C)[C@H](CC[C@@H]4[C@@]5(C)CC[C@H](O)C(C)(C)[C@@H]5CC[C@]43C)[C@@H]12	11.3	17.4	14.2	> 50	> 50	> 50	26.2	32.8	30.9	30.9
C=CC(=C)[C@@H]1CC[C@]2(C(=O)O)CC[C@]3(C)[C@H](CC[C@@H]4[C@@]5(C)CC[C@H](O)C(C)(C)[C@@H]5CC[C@]43C)[C@@H]12	11.1	25.1	26.2	44.6	15.7	24.3	23.9	24.3	24.1	24.1
C=C(/C=C/c1cccc(C(F)(F)F)c1)[C@@H]1CC[C@]2(C(=O)O)CC[C@]3(C)[C@H](CC[C@@H]4[C@@]5(C)CC[C@H](O)C(C)(C)[C@@H]5CC[C@]43C)[C@@H]12	8	28.1	25.1	> 50	26.5	42.9	35.1	24.8	24.6	23.1
C=C(/C=C/C1CCCCC1)[C@@H]1CC[C@]2(C(=O)O)CC[C@]3(C)[C@H](CC[C@@H]4[C@@]5(C)CC[C@H](O)C(C)(C)[C@@H]5CC[C@]43C)[C@@H]12	8	45.7	43.6	> 50	> 50	> 50	> 50	> 50	> 50	15.2

Source: ChEMBL document CHEMBL4828721, “Substituted dienes prepared from betulinic acid - Synthesis, cytotoxicity, mechanism of action, and pharmacological parameters” (Eur J Med Chem, 2021)
